We go through six molecules from US20060252807A1, “Novel ortho-terphenyl inhibitors of p38 kinase and methods of treating inflammatory disorders” (Kalypsys, Inc., priority 2005, published 2006).

In test [1] the target is T1, active p38 alpha enzyme (Upstate Biotechnology) (Homo sapiens, UniProt Q16539).
T1 construct: purchased Upstate Biotechnology
Description: p38α biochemical assay (ATP turnover, luminescent detection, Cambrex PKlight). Conditions: Table 1 Biological Activity. The gist of the method:
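Luminescent ATP-depletion readout measures total ATP turnover by p38α phosphorylating whole MapkapK2 protein. ATP 1.4 uM final; 30C, 2 h. Compounds delivered from DMSO.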

For test [2], the system named is TNF-α production. Description: TNF-α production by LPS-stimulated rats (ELISA). The format is in vivo, Male Lewis rats. The settings on record: rat, dose 10 mg/kg, −1 hr before LPS; read-out: LPS Induced TNF alpha (−1 hr) In Vivo (+) = >15% Inhibition (−) = ≦15% Inhibition. Here is the method:
TNF-α Production by LPS-Stimulated Mice
Male Lewis rats (180-200 g) were injected intraperitoneally with lipopolysaccharide (LPS) (50 μg/kg of E. coli strain 0111:B4, Sigma) suspended in sterile saline. Ninety minutes later, mice were sedated by CO2:O2 inhalation and a blood sample was obtained. Serum was separated and analyzed for TNF-α concentrations by commercial ELISA assay per the manufacturer's instructions (R&D Bioscience). Test compounds were administered orally at various times before LPS injection. The compounds were dosed either as suspensions or as solutions in various vehicles or solubilizing agents.
Compounds were dosed 0.5 to 3 hours before LPS stimulation. Rats were anaesthetized with Isofluor and injected i.v. with 0.3 mg/kg of LPS* in a volume of 0.3 ml sterile saline. Ninety minutes after the LPS injection, blood samples were collected into heparin tubes for preparation of plasma samples. Repression of TNFα production is assessed by commercial ELISA and reported below in Table 2.
A general note: In an ELISA, binding on a coated surface is turned into a signal by an enzyme label.

T1 sequence (Q16539 whole entry): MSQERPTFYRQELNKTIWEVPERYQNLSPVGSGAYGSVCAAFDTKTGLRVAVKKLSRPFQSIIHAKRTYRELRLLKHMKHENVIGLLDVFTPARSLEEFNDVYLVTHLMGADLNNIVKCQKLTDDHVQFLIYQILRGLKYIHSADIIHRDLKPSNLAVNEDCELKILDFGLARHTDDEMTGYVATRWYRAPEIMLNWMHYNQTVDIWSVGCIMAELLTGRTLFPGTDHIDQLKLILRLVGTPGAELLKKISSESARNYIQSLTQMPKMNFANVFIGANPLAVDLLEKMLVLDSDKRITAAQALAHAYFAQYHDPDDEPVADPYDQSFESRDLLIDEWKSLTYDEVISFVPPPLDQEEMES

On to `CC(C)NC(=O)c1csc(-c2c(-c3ccc(F)cc3)ncn2C2CCNCC2)n1` [Example 91, 2-|5-(4-Fluoro-phenyl)-3-piperidin-4-yl-3H-imidazol-4-yl|-thiazole-4-carboxylic acid isopropylamide], for which, in test [1] (p38α biochemical assay), the IC50 is at most 1000 nM. Also, the inhibition at 10 mg/kg in test [2] is above 15%.

In test [1] (p38α biochemical assay), `CC(C)NC(=O)c1csc(-c2c(-c3ccc(F)cc3)ncn2C2CCN(C(=O)CO)CC2)n1` [Example 93, 2-{5-(4-Fluoro-phenyl)-3-|1-(2-hydroxy-acetyl)-piperidin-4-yl|-3H-imidazol-4-yl}-thiazole-4-carboxylic acid isopropylamide] yielded an IC50 of at most 1000 nM. Besides, the inhibition at 10 mg/kg in test [2] is above 15%.

Consider `CC(C)NC(=O)c1csc(-c2c(-c3ccc(F)cc3)n[nH]c2C2CCNCC2)n1` [Example 811], for which, in test [1] (p38α kinase), the IC50 is at most 1000 nM. The inhibition at 10 mg/kg in test [2] is above 15%.

Consider `CCNC(=O)c1csc(-c2c(-c3ccc(F)cc3)n[nH]c2C2CCNCC2)n1` [Example 2026], for which the IC50 in test [1] (p38α kinase) was at most 1000 nM. The inhibition at 10 mg/kg in test [2] is above 15%.

For `C#CCNC(=O)c1csc(-c2c(-c3ccc(F)cc3)n[nH]c2C2CCNCC2)n1` [Example 2027], in test [1] (p38α kinase), the IC50 was at most 1000 nM. Besides, the inhibition at 10 mg/kg in test [2] is above 15%.

For `O=C(NCc1cccnc1)c1csc(-c2c(-c3ccc(F)cc3)n[nH]c2C2CCNCC2)n1` [Example 2028], the IC50 in test [1] (p38α kinase) was at most 1000 nM. For the same molecule, the inhibition at 10 mg/kg in test [2] is at most 15%.

The IC50 is the concentration that gives 50% inhibition. One may read the inhibition as the change of the read-out against control, counted positive when it falls.
